Laboratory results reported in publication PMC11873758, “Lonidamine, a Novel Modulator for the BvgAS System of Bordetella Species” (Microbiology and Immunology, 2024).

Molecular target: T1, VFT2 domain of BvgS (Bordetella pertussis, UniProt P16575)
T1 construct: His tag from pColdII (no GB1)
Assay: isothermal titration calorimetry
Format: binding
Conditions: 50 mM sodium phosphate, pH 7.4; 300 µM lonidamine into 20 µM VFT2

T1 sequence (P16575 290-541): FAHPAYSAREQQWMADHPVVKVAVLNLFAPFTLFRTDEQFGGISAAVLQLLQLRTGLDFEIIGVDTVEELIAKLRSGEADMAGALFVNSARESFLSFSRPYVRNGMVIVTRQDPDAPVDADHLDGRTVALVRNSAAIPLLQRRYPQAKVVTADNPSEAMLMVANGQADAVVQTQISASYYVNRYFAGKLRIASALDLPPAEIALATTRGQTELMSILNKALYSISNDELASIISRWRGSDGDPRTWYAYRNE

`O=C(O)c1nn(Cc2ccc(Cl)cc2Cl)c2ccccc12` [#5, 1‐(2,4‐dichlorobenzyl)‐1H‐indazole‐3‐carboxylic acid] was tested, and the isothermal titration calorimetry was “ITC revealed that lonidamine bound to VFT2 but not VFT1”.
